From US4122184A, “Benzimidazole insecticides” (priority 1977, dated 1978)

Assays:
Differential Grasshopper = test: Field trial (first summer), contact; type: in vivo
Meadow Grasshopper = test: Field trial (first summer), contact; type: in vivo; settings: 125 ppm
Tussock Moth = test: Field trial (first summer), stomach; type: in vivo; settings: 750 ppm
Zebra Caterpillar = test: Field trial (first summer), stomach; type: in vivo; settings: 500 ppm
Bagworms = test: Field trial, contact poison test; type: in vivo; set-up: key: 0-9 scale: 0 = 0-10% mortality, 9 = 91-100% mortality
Excerpt: Infested plants are placed in 6 oz. prescription bottles filled with water to keep them from wilting. Cellucotton is wrapped around the plant stem and squeezed into the bottle neck to prevent the insects from drowning.
A DeVilbiss Special Atomizer (5004) is used at 10 psi to spray the test plant with different concentrations of compounds. The atomizer is held at arm's length to prevent blowing the insects off the host plant. After treating, the bottles are placed on a table covered with brown wrapping paper to catch the dead insects as they drop from the plant. The plants are spaced so the leaves or plants are not touching one another.
The results are read at 24, 48, and 72 hours when applicable. The rating scale is 0 to 9 where 0 = 0-10 percent and 9 = 91-100 percent mortality.
Using the above methods, field trials were carried out against species of 5 orders of insects. The results, which are summarized in the following tables, give the average mortality for the particular insect with a given benzimidazole for each concentration employed. […] These tables contain all results obtained during the summer trials.

Imported Cabbage Worm = test: Field trial, contact poison test; type: in vivo
Outline: (§1)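 Infested plants in water-filled bottles sprayed by atomizer at 10 psi with compound at several concentrations. Mortality read at 24, 48 and 72 hours on a 0–9 scale (0 = 0-10%, 9 = 91-100%), averaged per concentration.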

Fall Webworm [1] = test: Field trial, contact poison test; type: in vivo
Outline: as §1

Corn Earworm = test: Field trial, contact poison test; type: in vivo
Outline: as §1

Acute dermal toxicity = type: in vivo; settings: rabbit
Excerpt: While the compounds of this invention resemble the organic phosphates in being toxic upon ingestion, they differ from the organic phosphates in having a low toxicity when applied to the skin. The following charts give the estimated acute oral and acute dermal toxicities of 2,6-bis(trifluoromethyl)-4-nitrobenzimidazole in several species of mammals.

Mexican Bean Beetle = test: Field trial (first summer), topical; type: in vivo, Epilachna varivestis
Description: In a variation of the above test, 1 microliter of a test solution containing a predetermined number of micrograms of benzimidazole was applied directly to larvae or adult insects.
During the previous summer similar field trials were conducted employing the same tests as heretofore but with some additional species of insects not included in the later tests. The results listed below are for tests in which an insect mortality was established by a given application route and at a given concentration in a particular test. The same 0 - 9 scoring system is used as is the designation of compounds by alphabetical symbols.

Asparagus Beetles Larvae = test: Field trial, stomach poison test; type: in vivo
Outline: (§2)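 Leaves from infested plants sprayed (10 psi) or dipped in test compound at several concentrations, air-dried, then five or ten insects placed per dish, one or two replicates. Mortality scored 0 to 9 at 24, 48 and 72 h, averaged per concentration.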

Fall Webworm [2] = test: Field trial, stomach poison test; type: in vivo
Outline: as §2

Mosquito Larvae = test: Mosquito larvae test (dip test); type: in vivo, Aedes aegypti; settings: 48 h
Description: Aedes aegypti larvae 5 days old are allowed to feed on fresh food for at least 3 hours previous to being placed on test. Larvae are then removed from the rearing pans by pouring on a 20 mesh screen, washing with deionized water, and pooling in a 6-inch white enameled sauce pan.
Twenty larvae are placed in a 1 oz. paper cup containing 25 ml. of deionized water.
Test chemicals are dissolved in a suitable solvent and pipetted under the surface of 225 ml. of deionized water in one pint wide-mouthed Mason jar test containers and stirred. A cup containing 20 larvae in 25 ml. of water is then added. […]
Results are determined 48 hours later by counting the dead and moribund larvae. […] Moribund larvae are those that are capable of limited, or poorly coordinated, locomotion in a sluggish manner.
Live larvae respond normally and actively.

Citrus Rust Mite (CRM) = test: Miticide test, acute mortality, foliar spray; type: in vivo
Description: Citrus cuttings were obtained and prepared for testing within 24 hours prior to inoculation with citrus rust mites. To prepare the cuttings, terminals of branches 12 to 14 inches in length were cut from temple orange trees, immediately placed in tap water and taken into the laboratory. Uniform hardwood cuttings, 3 to 4 inches in length, were cut from the branches, all but one hardened leaf was removed from the cuttings, and the remaining leaf was wiped clean with a cotton pad soaked in 10% ethanol solution. Each cutting was immediately placed in tap water in a test tube with the closed leaf extending out of the test tube. Then, a ring of melted lanolin was applied around the petiole to prevent migration of mites from the leaf. One cutting was used for each replicate.
When the leaves were dry immediately after cleaning, citrus rust mites were transferred to the test leaves by cutting a heavily infested colony leaf (from a source colony maintained on citrus seedlings) into 20 to 22 sections (approximately 0.25 by 0.5 inches in size) and using forceps to place 1 section on each leaf cutting. As the section became desiccated the mites moved to the whole leaf and in 20 hours the sections were removed from the leaves for treatment application.
Treatments were applied within 24 hours after inoculation by removing the cuttings from the test tube and submerging the leaves in the treatment solution for 5 seconds by hand and immediately returning the cutting to the test tube. […]
The treated cuttings were stored in the greenhouse for 24 hours before evaluation under a binocular disecting microscope in the laboratory. In evaluating the results of the miticide test, each treated cutting was removed from the test tube, observed for live and dead mites at 14 × magnification, and returned immediately to the test tube. A scale of 0-9 was used as before.

In the case of `O=[N+]([O-])c1cc(C(F)(F)F)cc2nc(C(F)(F)F)[nH]c12` [A, 2,6-bis(trifluoromethyl)-4-nitrobenzimidazole], the insect mortality rating (Differential Grasshopper; 125 ppm) is reported as 9 (91-100 percent mortality), the insect mortality rating (Meadow Grasshopper) is reported as 9 (91-100 percent mortality) and the insect mortality rating (Tussock Moth) is reported as 9 (91-100 percent mortality). The insect mortality rating (Zebra Caterpillar) was 7, the average mortality rating (Bagworms; 125 ppm) was 0 (0-10 percent) and the average mortality rating (Bagworms; 250 ppm) was 4. The average mortality rating (Bagworms; 500 ppm) was 4, the average mortality rating (Bagworms; 750 ppm) was 1 and the average mortality rating (Bagworms; 1000 ppm) was 0 (0-10 percent). The average mortality rating (Bagworms; 1500 ppm) was 0 (0-10 percent), the average mortality rating (Imported Cabbage Worm; 125 ppm) was 3 and the average mortality rating (Imported Cabbage Worm; 250 ppm) was 4. For the same molecule, the average mortality rating (Imported Cabbage Worm; 500 ppm) was 3, the average mortality rating (Imported Cabbage Worm; 750 ppm) was 7 and the average mortality rating (Fall Webworm [1]; 125 ppm) was 3. The average mortality rating (Fall Webworm [1]; 250 ppm) was 5, the average mortality rating (Fall Webworm [1]; 500 ppm) was 3 and the average mortality rating (Fall Webworm [1]; 750 ppm) was 9 (91-100 percent mortality). For the same molecule, the average mortality rating (Corn Earworm; 62.5 ppm) was 0 (0-10 percent), the average mortality rating (Corn Earworm; 125 ppm) was 0 (0-10 percent) and the average mortality rating (Corn Earworm; 250 ppm) was 0 (0-10 percent). For the same molecule, the average mortality rating (Corn Earworm; 500 ppm) was 0 (0-10 percent), the average mortality rating (Corn Earworm; 750 ppm) was 1 and the LD50 (Acute dermal toxicity; in vivo, topical or ocular, male, read-out: Est. LD50) was > 500 mg/kg. The “Est. LD50” value (Acute dermal toxicity; female) was > 500 mg/kg, the insect mortality rating (Mexican Bean Beetle; .25 μg/μl) was 9 (91-100 percent mortality) and the average mortality rating (Asparagus Beetles Larvae; 5 ppm) was 3. For the same molecule, the average mortality rating (Asparagus Beetles Larvae; 10 ppm) was 7, the average mortality rating (Asparagus Beetles Larvae; 25 ppm) was 7 and the average mortality rating (Fall Webworm [2]; 250 ppm) was 9 (91-100 percent mortality). The average mortality rating (Fall Webworm [2]; 500 ppm) was 0 (0-10 percent), the average mortality rating (Fall Webworm [2]; 750 ppm) was 0 (0-10 percent) and the average mortality rating (Fall Webworm [2]; 1000 ppm) was 0 (0-10 percent).

For `CCCCCCOC(=O)n1c(C(F)(F)F)nc2c([N+](=O)[O-])cc(C(F)(F)F)cc21` [E, n-hexyl 2,6-bis(trifluoromethyl)-4-nitro-1-benzimidazolecarboxylate], the insect mortality rating (Differential Grasshopper; 250 ppm) was 9 (91-100 percent mortality), the insect mortality rating (Meadow Grasshopper) was 9 (91-100 percent mortality) and the insect mortality rating (Tussock Moth) was 5. For the same molecule, the insect mortality rating (Zebra Caterpillar) was 5, the average mortality rating (Mosquito Larvae; 0.010 ppm) was 0 (0-10%) and the average mortality rating (Mosquito Larvae; 0.025 ppm) was 0 (0-10%). The average mortality rating (Mosquito Larvae; 0.05 ppm) was 1 (15-20%), the average mortality rating (Mosquito Larvae; 0.1 ppm) was 8 (85-90%) and the insect mortality rating (Mexican Bean Beetle; .0625 μg/μl) was 9 (91-100 percent mortality). The acute mortality rating (Citrus Rust Mite (CRM); 6.25 ppm, after 48 hours) was 4, the acute mortality rating (Citrus Rust Mite (CRM); 12.5 ppm, after 48 hours) was 8 and the acute mortality rating (Citrus Rust Mite (CRM); 25 ppm, after 48 hours) was 9 (91-100 percent mortality). The acute mortality rating (Citrus Rust Mite (CRM); 50 ppm, after 48 hours) was 9 (91-100 percent mortality) and the acute mortality rating (Citrus Rust Mite (CRM); 100 ppm, after 48 hours) was 9 (91-100 percent mortality).

For `CC(C)OC(=O)n1c(C(F)(F)F)nc2c([N+](=O)[O-])cc(C(F)(F)F)cc21` [I, isopropyl 2,6-bis(trifluoromethyl)-4-nitro-1-benzimidazolecarboxylate], the average mortality rating (Bagworms; 125 ppm) was 1, the average mortality rating (Bagworms; 250 ppm) was 4 and the average mortality rating (Bagworms; 500 ppm) was 5. For the same molecule, the average mortality rating (Bagworms; 750 ppm) was 2, the average mortality rating (Bagworms; 1000 ppm) was 1 and the average mortality rating (Bagworms; 1500 ppm) was 0 (0-10 percent). For the same molecule, the acute mortality rating (Citrus Rust Mite (CRM); 6.25 ppm, after 24 hours) was 5, the acute mortality rating (Citrus Rust Mite (CRM); 12.5 ppm, after 24 hours) was 7 and the acute mortality rating (Citrus Rust Mite (CRM); 25 ppm, after 24 hours) was 9 (91-100 percent mortality). For the same molecule, the acute mortality rating (Citrus Rust Mite (CRM); 50 ppm, after 24 hours) was 9 (91-100 percent mortality) and the acute mortality rating (Citrus Rust Mite (CRM); 100 ppm, after 24 hours) was 9 (91-100 percent mortality).

With “mixture of methyl 2,6-bis(trifluoromethyl)-4-nitro-1-benzimidazolecarboxylate and methyl 2,5-bis(trifluoromethyl)-7-nitro-1-benzimidazolecarboxylate” the average mortality rating (Mosquito Larvae; 0.025 ppm) was 0 (0-10%), the average mortality rating (Mosquito Larvae; 0.05 ppm) was 0 (0-10%) and the average mortality rating (Mosquito Larvae; 0.1 ppm) was 4 (45-50%).
